Test results reported in ChEMBL document CHEMBL4828709, “Discovery of 2,4-pyrimidinediamine derivatives as potent dual inhibitors of ALK and HDAC” (Eur J Med Chem, 2021).

These molecules were tested against T1, ALK tyrosine kinase receptor (Homo sapiens, UniProt Q9UM73) (assay: Inhibition of ALK (unknown origin) at 100 nM preincubated for 10 mins followed by addition of substrate and ATP for 25 mins by caliper EZ reader method). Conditions: time 35.0 min.
T1 sequence (Q9UM73 19-1620 limits assumed): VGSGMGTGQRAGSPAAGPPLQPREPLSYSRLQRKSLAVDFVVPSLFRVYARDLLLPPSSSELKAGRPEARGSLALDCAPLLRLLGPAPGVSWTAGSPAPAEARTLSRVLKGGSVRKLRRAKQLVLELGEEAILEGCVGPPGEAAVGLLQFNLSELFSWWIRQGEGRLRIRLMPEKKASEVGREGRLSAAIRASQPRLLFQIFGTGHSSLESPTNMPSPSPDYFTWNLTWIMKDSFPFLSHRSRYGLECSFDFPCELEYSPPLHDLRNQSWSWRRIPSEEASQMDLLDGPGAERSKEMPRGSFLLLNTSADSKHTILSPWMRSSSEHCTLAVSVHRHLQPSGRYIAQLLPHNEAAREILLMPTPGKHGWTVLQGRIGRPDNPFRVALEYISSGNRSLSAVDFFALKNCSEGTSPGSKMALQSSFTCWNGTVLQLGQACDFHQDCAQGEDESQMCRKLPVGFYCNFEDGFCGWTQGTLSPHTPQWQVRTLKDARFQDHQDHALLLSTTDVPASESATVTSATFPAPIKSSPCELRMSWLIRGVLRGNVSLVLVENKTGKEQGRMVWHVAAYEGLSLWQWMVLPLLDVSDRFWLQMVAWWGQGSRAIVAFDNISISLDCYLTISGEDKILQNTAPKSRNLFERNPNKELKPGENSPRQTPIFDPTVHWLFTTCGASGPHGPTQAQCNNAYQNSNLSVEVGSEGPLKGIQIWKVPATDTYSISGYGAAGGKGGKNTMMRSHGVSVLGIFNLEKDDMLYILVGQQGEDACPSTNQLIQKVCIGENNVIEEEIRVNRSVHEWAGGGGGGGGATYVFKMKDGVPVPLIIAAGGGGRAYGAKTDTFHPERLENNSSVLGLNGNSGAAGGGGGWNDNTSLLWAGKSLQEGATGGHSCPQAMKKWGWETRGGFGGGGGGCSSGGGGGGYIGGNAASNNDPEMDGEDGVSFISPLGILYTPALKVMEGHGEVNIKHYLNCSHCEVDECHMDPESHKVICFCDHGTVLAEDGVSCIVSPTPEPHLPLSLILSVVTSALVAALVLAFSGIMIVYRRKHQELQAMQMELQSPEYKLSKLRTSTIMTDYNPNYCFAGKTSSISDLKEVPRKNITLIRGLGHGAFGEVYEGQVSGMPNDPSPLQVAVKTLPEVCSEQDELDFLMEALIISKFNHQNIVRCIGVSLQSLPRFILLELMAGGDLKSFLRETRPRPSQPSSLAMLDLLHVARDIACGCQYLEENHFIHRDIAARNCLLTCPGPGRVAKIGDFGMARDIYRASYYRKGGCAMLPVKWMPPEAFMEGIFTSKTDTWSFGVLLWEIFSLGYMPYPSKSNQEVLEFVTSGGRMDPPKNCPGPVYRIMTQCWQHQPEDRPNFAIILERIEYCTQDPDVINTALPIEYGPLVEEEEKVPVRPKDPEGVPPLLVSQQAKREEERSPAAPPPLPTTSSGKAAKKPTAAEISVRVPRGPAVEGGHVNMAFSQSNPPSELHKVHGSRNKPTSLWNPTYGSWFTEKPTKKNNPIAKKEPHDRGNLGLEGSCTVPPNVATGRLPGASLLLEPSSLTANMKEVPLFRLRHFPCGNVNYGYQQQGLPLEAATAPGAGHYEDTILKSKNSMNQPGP

Structure (SMILES)	inhibition [%]
CC(C)S(=O)(=O)c1ccccc1Nc1nc(Nc2cccc(C(=O)NCCCCC(=O)NO)c2)ncc1Cl	97.7
CC(C)S(=O)(=O)c1ccccc1Nc1nc(Nc2cccc(NC(=O)CCCC(=O)NO)c2)ncc1Cl	98.1
COc1cccc(Nc2nc(Nc3ccc(NC(=O)CCCCCCC(=O)NO)cc3)ncc2C(F)(F)F)c1	7.6
CC(C)S(=O)(=O)c1ccccc1Nc1nc(Nc2ccc(C(=O)NCCCCCC(=O)NO)cc2)ncc1Cl	98.1
CC(C)S(=O)(=O)c1ccccc1Nc1nc(Nc2ccc(NC(=O)CCCCCCC(=O)NO)cc2)ncc1F	96
Cc1cc(C(=O)NCCCCCC(=O)NO)ccc1Nc1ncc(Cl)c(Nc2ccccc2S(=O)(=O)C(C)C)n1	97.3
CC(C)S(=O)(=O)c1ccccc1Nc1nc(Nc2ccc(NC(=O)CCCCC(=O)NO)cc2)ncc1Cl	99
COc1cc(C(=O)NCCCCCC(=O)NO)ccc1Nc1ncc(Cl)c(Nc2ccccc2S(=O)(=O)C(C)C)n1	98.5
CC(C)S(=O)(=O)c1ccccc1Nc1nc(Nc2ccc(/C=C/C(=O)NO)cc2)ncc1Cl	101
CC(C)S(=O)(=O)c1ccccc1Nc1nc(Nc2ccc(C(=O)NCCCCCCC(=O)NO)c(Cl)c2)ncc1Cl	100
Cc1ccc(Nc2ncc(Cl)c(Nc3ccccc3S(=O)(=O)C(C)C)n2)cc1NC(=O)CCCCC(=O)NO	98.5
COc1ccc(Nc2nc(Nc3ccc(NC(=O)CCCCCCC(=O)NO)cc3)ncc2Cl)cc1OC	17.6
CC(C)S(=O)(=O)c1ccccc1Nc1nc(Nc2ccc(NC(=O)CCCC(=O)NO)cc2)ncc1Cl	98.5
CC(C)S(=O)(=O)c1ccccc1Nc1nc(Nc2ccc(C(=O)NCCCC(=O)NO)cc2)ncc1Cl	97.9
O=C(CCCCCCC(=O)Nc1ccc(Nc2ncc(Cl)c(Nc3ccccc3Cl)n2)cc1)NO	21.2
CC(C)S(=O)(=O)c1ccccc1Nc1nc(Nc2cccc(C(=O)NCCCCCC(=O)NO)c2)ncc1Cl	97.3
O=C(CCCCCCC(=O)Nc1ccc(Nc2ncc(Cl)c(Nc3ccccc3)n2)cc1)NO	36.9
CC(C)S(=O)(=O)c1ccccc1Nc1nc(Nc2ccc(C(=O)NCCCCCC(=O)NO)c(Cl)c2)ncc1Cl	97.8
Cc1ccccc1Nc1nc(Nc2ccc(NC(=O)CCCCCCC(=O)NO)cc2)ncc1Cl	27.8
CC(C)S(=O)(=O)c1ccccc1Nc1nc(Nc2cccc(C(=O)NCCCC(=O)NO)c2)ncc1Cl	98
CC(C)S(=O)(=O)c1ccccc1Nc1nc(Nc2cccc(C(=O)NCCC(=O)NO)c2)ncc1Cl	99.1

Each molecule was assayed against T2, Histone deacetylase 1 (Homo sapiens, UniProt Q13547). Conditions: Sf9, dose 100.0 nM, time 15.0 min.
T2 sequence (Q13547 whole entry): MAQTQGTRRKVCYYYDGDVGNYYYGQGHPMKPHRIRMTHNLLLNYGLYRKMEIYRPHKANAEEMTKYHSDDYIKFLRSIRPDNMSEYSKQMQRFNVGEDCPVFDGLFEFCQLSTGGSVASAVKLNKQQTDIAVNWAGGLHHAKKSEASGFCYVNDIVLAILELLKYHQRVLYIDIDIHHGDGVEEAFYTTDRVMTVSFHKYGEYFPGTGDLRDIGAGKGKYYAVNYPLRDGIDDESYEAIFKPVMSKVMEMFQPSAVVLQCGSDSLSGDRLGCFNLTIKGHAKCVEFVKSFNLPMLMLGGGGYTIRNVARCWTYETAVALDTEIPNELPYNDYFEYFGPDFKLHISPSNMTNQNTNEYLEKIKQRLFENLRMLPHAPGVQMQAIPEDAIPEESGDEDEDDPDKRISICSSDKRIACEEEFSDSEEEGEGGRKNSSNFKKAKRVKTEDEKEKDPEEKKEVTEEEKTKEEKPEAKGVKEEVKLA

Structure (SMILES)	inhibition [%]
CC(C)S(=O)(=O)c1ccccc1Nc1nc(Nc2cccc(C(=O)NCCCCC(=O)NO)c2)ncc1Cl	65
CC(C)S(=O)(=O)c1ccccc1Nc1nc(Nc2cccc(NC(=O)CCCC(=O)NO)c2)ncc1Cl	83
COc1cccc(Nc2nc(Nc3ccc(NC(=O)CCCCCCC(=O)NO)cc3)ncc2C(F)(F)F)c1	89
CC(C)S(=O)(=O)c1ccccc1Nc1nc(Nc2ccc(C(=O)NCCCCCC(=O)NO)cc2)ncc1Cl	101
CC(C)S(=O)(=O)c1ccccc1Nc1nc(Nc2ccc(NC(=O)CCCCCCC(=O)NO)cc2)ncc1F	94
Cc1cc(C(=O)NCCCCCC(=O)NO)ccc1Nc1ncc(Cl)c(Nc2ccccc2S(=O)(=O)C(C)C)n1	96
CC(C)S(=O)(=O)c1ccccc1Nc1nc(Nc2ccc(NC(=O)CCCCC(=O)NO)cc2)ncc1Cl	20
COc1cc(C(=O)NCCCCCC(=O)NO)ccc1Nc1ncc(Cl)c(Nc2ccccc2S(=O)(=O)C(C)C)n1	86
CC(C)S(=O)(=O)c1ccccc1Nc1nc(Nc2ccc(/C=C/C(=O)NO)cc2)ncc1Cl	3
CC(C)S(=O)(=O)c1ccccc1Nc1nc(Nc2ccc(C(=O)NCCCCCCC(=O)NO)c(Cl)c2)ncc1Cl	67
Cc1ccc(Nc2ncc(Cl)c(Nc3ccccc3S(=O)(=O)C(C)C)n2)cc1NC(=O)CCCCC(=O)NO	39
COc1ccc(Nc2nc(Nc3ccc(NC(=O)CCCCCCC(=O)NO)cc3)ncc2Cl)cc1OC	94
CC(C)S(=O)(=O)c1ccccc1Nc1nc(Nc2ccc(NC(=O)CCCC(=O)NO)cc2)ncc1Cl	17
CC(C)S(=O)(=O)c1ccccc1Nc1nc(Nc2ccc(C(=O)NCCCC(=O)NO)cc2)ncc1Cl	4
O=C(CCCCCCC(=O)Nc1ccc(Nc2ncc(Cl)c(Nc3ccccc3Cl)n2)cc1)NO	90
CC(C)S(=O)(=O)c1ccccc1Nc1nc(Nc2cccc(C(=O)NCCCCCC(=O)NO)c2)ncc1Cl	84
O=C(CCCCCCC(=O)Nc1ccc(Nc2ncc(Cl)c(Nc3ccccc3)n2)cc1)NO	99
CC(C)S(=O)(=O)c1ccccc1Nc1nc(Nc2ccc(C(=O)NCCCCCC(=O)NO)c(Cl)c2)ncc1Cl	93
Cc1ccccc1Nc1nc(Nc2ccc(NC(=O)CCCCCCC(=O)NO)cc2)ncc1Cl	99
CC(C)S(=O)(=O)c1ccccc1Nc1nc(Nc2cccc(C(=O)NCCCC(=O)NO)c2)ncc1Cl	44
CC(C)S(=O)(=O)c1ccccc1Nc1nc(Nc2cccc(C(=O)NCCC(=O)NO)c2)ncc1Cl	4

What follows are molecules tested against T1, ALK tyrosine kinase receptor (assay: Inhibition of ALK (unknown origin) at 10 nM preincubated for 10 mins followed by addition of substrate and ATP for 25 mins by caliper EZ reader method). Conditions: time 35.0 min.

Structure (SMILES)	inhibition [%]
CC(C)S(=O)(=O)c1ccccc1Nc1nc(Nc2cccc(C(=O)NCCCCC(=O)NO)c2)ncc1Cl	81
CC(C)S(=O)(=O)c1ccccc1Nc1nc(Nc2cccc(NC(=O)CCCC(=O)NO)c2)ncc1Cl	87
COc1cccc(Nc2nc(Nc3ccc(NC(=O)CCCCCCC(=O)NO)cc3)ncc2C(F)(F)F)c1	4.9
CC(C)S(=O)(=O)c1ccccc1Nc1nc(Nc2ccc(C(=O)NCCCCCC(=O)NO)cc2)ncc1Cl	89.4
CC(C)S(=O)(=O)c1ccccc1Nc1nc(Nc2ccc(NC(=O)CCCCCCC(=O)NO)cc2)ncc1F	66.3
Cc1cc(C(=O)NCCCCCC(=O)NO)ccc1Nc1ncc(Cl)c(Nc2ccccc2S(=O)(=O)C(C)C)n1	93.1
CC(C)S(=O)(=O)c1ccccc1Nc1nc(Nc2ccc(NC(=O)CCCCC(=O)NO)cc2)ncc1Cl	84.7
COc1cc(C(=O)NCCCCCC(=O)NO)ccc1Nc1ncc(Cl)c(Nc2ccccc2S(=O)(=O)C(C)C)n1	97.3
CC(C)S(=O)(=O)c1ccccc1Nc1nc(Nc2ccc(/C=C/C(=O)NO)cc2)ncc1Cl	71.6
CC(C)S(=O)(=O)c1ccccc1Nc1nc(Nc2ccc(C(=O)NCCCCCCC(=O)NO)c(Cl)c2)ncc1Cl	70.3
Cc1ccc(Nc2ncc(Cl)c(Nc3ccccc3S(=O)(=O)C(C)C)n2)cc1NC(=O)CCCCC(=O)NO	76.9
COc1ccc(Nc2nc(Nc3ccc(NC(=O)CCCCCCC(=O)NO)cc3)ncc2Cl)cc1OC	3.1
CC(C)S(=O)(=O)c1ccccc1Nc1nc(Nc2ccc(NC(=O)CCCC(=O)NO)cc2)ncc1Cl	87.6
CC(C)S(=O)(=O)c1ccccc1Nc1nc(Nc2ccc(C(=O)NCCCC(=O)NO)cc2)ncc1Cl	91.2
O=C(CCCCCCC(=O)Nc1ccc(Nc2ncc(Cl)c(Nc3ccccc3Cl)n2)cc1)NO	3.1
CC(C)S(=O)(=O)c1ccccc1Nc1nc(Nc2cccc(C(=O)NCCCCCC(=O)NO)c2)ncc1Cl	83.2
O=C(CCCCCCC(=O)Nc1ccc(Nc2ncc(Cl)c(Nc3ccccc3)n2)cc1)NO	4.9
CC(C)S(=O)(=O)c1ccccc1Nc1nc(Nc2ccc(C(=O)NCCCCCC(=O)NO)c(Cl)c2)ncc1Cl	87.7
Cc1ccccc1Nc1nc(Nc2ccc(NC(=O)CCCCCCC(=O)NO)cc2)ncc1Cl	1.2
CC(C)S(=O)(=O)c1ccccc1Nc1nc(Nc2cccc(C(=O)NCCCC(=O)NO)c2)ncc1Cl	85.7
CC(C)S(=O)(=O)c1ccccc1Nc1nc(Nc2cccc(C(=O)NCCC(=O)NO)c2)ncc1Cl	81

Each molecule was assayed against T2, Histone deacetylase 1. Conditions: Sf9, dose 10.0 nM, time 15.0 min.

Structure (SMILES)	inhibition [%]
CC(C)S(=O)(=O)c1ccccc1Nc1nc(Nc2cccc(C(=O)NCCCCC(=O)NO)c2)ncc1Cl	23
CC(C)S(=O)(=O)c1ccccc1Nc1nc(Nc2cccc(NC(=O)CCCC(=O)NO)c2)ncc1Cl	38
COc1cccc(Nc2nc(Nc3ccc(NC(=O)CCCCCCC(=O)NO)cc3)ncc2C(F)(F)F)c1	56
CC(C)S(=O)(=O)c1ccccc1Nc1nc(Nc2ccc(C(=O)NCCCCCC(=O)NO)cc2)ncc1Cl	55
CC(C)S(=O)(=O)c1ccccc1Nc1nc(Nc2ccc(NC(=O)CCCCCCC(=O)NO)cc2)ncc1F	70
Cc1cc(C(=O)NCCCCCC(=O)NO)ccc1Nc1ncc(Cl)c(Nc2ccccc2S(=O)(=O)C(C)C)n1	58
CC(C)S(=O)(=O)c1ccccc1Nc1nc(Nc2ccc(NC(=O)CCCCC(=O)NO)cc2)ncc1Cl	-8
COc1cc(C(=O)NCCCCCC(=O)NO)ccc1Nc1ncc(Cl)c(Nc2ccccc2S(=O)(=O)C(C)C)n1	45
CC(C)S(=O)(=O)c1ccccc1Nc1nc(Nc2ccc(/C=C/C(=O)NO)cc2)ncc1Cl	0
CC(C)S(=O)(=O)c1ccccc1Nc1nc(Nc2ccc(C(=O)NCCCCCCC(=O)NO)c(Cl)c2)ncc1Cl	24
Cc1ccc(Nc2ncc(Cl)c(Nc3ccccc3S(=O)(=O)C(C)C)n2)cc1NC(=O)CCCCC(=O)NO	8
COc1ccc(Nc2nc(Nc3ccc(NC(=O)CCCCCCC(=O)NO)cc3)ncc2Cl)cc1OC	65
CC(C)S(=O)(=O)c1ccccc1Nc1nc(Nc2ccc(NC(=O)CCCC(=O)NO)cc2)ncc1Cl	4
CC(C)S(=O)(=O)c1ccccc1Nc1nc(Nc2ccc(C(=O)NCCCC(=O)NO)cc2)ncc1Cl	-2
O=C(CCCCCCC(=O)Nc1ccc(Nc2ncc(Cl)c(Nc3ccccc3Cl)n2)cc1)NO	67
CC(C)S(=O)(=O)c1ccccc1Nc1nc(Nc2cccc(C(=O)NCCCCCC(=O)NO)c2)ncc1Cl	35
O=C(CCCCCCC(=O)Nc1ccc(Nc2ncc(Cl)c(Nc3ccccc3)n2)cc1)NO	84
CC(C)S(=O)(=O)c1ccccc1Nc1nc(Nc2ccc(C(=O)NCCCCCC(=O)NO)c(Cl)c2)ncc1Cl	45
Cc1ccccc1Nc1nc(Nc2ccc(NC(=O)CCCCCCC(=O)NO)cc2)ncc1Cl	91
CC(C)S(=O)(=O)c1ccccc1Nc1nc(Nc2cccc(C(=O)NCCCC(=O)NO)c2)ncc1Cl	4
CC(C)S(=O)(=O)c1ccccc1Nc1nc(Nc2cccc(C(=O)NCCC(=O)NO)c2)ncc1Cl	-1
